From US6593335B1, “Potassium channel openers” (Abbott Laboratories, priority 1997, dated 2003)

Tests used:
[1] = molecular target: potassium channels (Sus scrofa, UniProt F1SR11); test: Functional potassium channel opening activity in isolated Landrace pig bladder strips (field-stimulated twitch); conditions: for Landrace Pig Bladder Index: ED50 for P1075 divided by ED50 for the test agonist, averaged over tissues; for Landrace Pig Bladder pD2: negative logarithm of ED50; for Emax: pig, maximal efficacy relative to P1075, field stimulation 0.05Hz, 0.5 milli-seconds at 20 volts
Protocol: The entire bladder was removed and ed into Krebs Ringer bicarbonate solution (composition, mM: NaCl,; dextrose, 1; KCl, 4.7; […] Propranolol (0.004 ed in all of the assays to block […]. The trigonal and dome […]. Strips 3-5 mm wide and 20 mm long were prepared from the cut in a circular fashion. The mucosal layer was removed. One end ationary glass rod and the other to a Grass FT03 transducer at a basal am. Two parallel platinum electrodes were included in the stationary ide field stimulation of 0.05Hz, 0.5 milli-seconds at 20 volts. […] Tissues were allowed to equilibrate for at least 60 minutes and primed with 80 mM KCl. A control concentration response curve (cumulative) was generated for each tissue using the potassium channel opener […] as the control agonist. […] After a 60 minute rinsing period, a concentration response curve (cumulative) was generated for the test agonist in the same fashion as that used for the control agonist […]. The maximal efficacy of each compound (expressed as % relative to […]) is reported. […] J. Physiol. 235, E97 (1980)), and agonist potencies were expressed as pD2 (the negative logarithm). Agonist potencies were also expressed as an index relative to […]. The index was calculated by dividing the ED50 for […] by the ED50 for the test agonist in a given tissue. Each tissue was used for only one test agonist, and the indices obtained from each tissue were averaged to provide an average index of potency.

Row | melting point | Landrace Pig Bladder Index [1] | Landrace Pig Bladder pD2 [1] | Emax [1] [%] | SMILES
1 | > 250 °C | – | – | – | O=C1CCCC2=C1C(c1cccnc1)C1=C(CCS1(=O)=O)N2 (stereo not shown) [Example 117, 9-(3-pyridinyl)-2,3,5,6,7,9-hexahydrothieno[3,2-b]quinolin-8(4H)-one, 1,1-dioxide]
2 | > 260 °C | – | – | – | Cc1cc(C2C3=C(CCCC3=O)NC3=C2S(=O)(=O)CC3)ccc1F (stereo not shown) [Example 111, 9-(4-fluoro-3-methylphenyl)-2,3,5,6,7,9-hexahydrothieno[3,2-b]quinolin-8(4H)-one, 1,1-dioxide]
3 | 208 to 210 °C | 0.015 | 5.2 | 100 | CC1=C(C(=O)O)C(c2ccc(F)c(Br)c2)C2=C(CCCS2(=O)=O)N1 (stereo not shown) [Example 107]
4 | 180 to 183 °C | – | – | – | O=S1(=O)CCC2=C1C(c1ccc(F)c(Cl)c1)C=C(C(F)(F)F)N2 (stereo not shown) [Example 163, 7-(3-chloro-4-fluorophenyl)-5-(trifluoromethyl)-2,3,4,7-tetrahydrothieno[3,2-b]pyridine, 1,1-dioxide]
5 | 218 to 220 °C | – | – | – | CC1=C(S(C)(=O)=O)C(c2ccc(Cl)c(Cl)c2)C2=C(CCC2=O)N1 (stereo not shown) [Example 75, 4-(3,4-dichlorophenyl)-1,4,6,7-tetrahydro-2-methyl-3-(methylsulfonyl)-5H-cyclopentafblpyridin-5-one]
6 | > 260 °C | – | – | – | O=C1CCC2=C1C(c1cccc([N+](=O)[O-])c1)C1=C(CCCS1(=O)=O)N2 (stereo not shown) [Example 55, 3,4,5,6,7,9-hexahydro-9-(3-nitrophenyl)cyclopenta[b]thiopyrano [2,3-e]pyridin-8(2H)-one, 1,1-dioxide]
7 | > 250 °C | – | – | – | N#Cc1cccc(C2C3=C(CCC3=O)NC3=C2S(=O)(=O)CC3)c1 (single isomer, unassigned; (-)) [Example 162]
8 | > 250 °C | – | – | – | O=C1CCCC2=C1C(c1cc(Br)cs1)C1=C(CCS1(=O)=O)N2 (stereo not shown) [Example 129, 9-(4-bromo-2-thienyl)-2,3,5,6,7,9-hexahydrothieno[3,2-b]quinolin-8(4H)-one, 1,1-dioxide]
9 | 275 to 280 °C (dec.) | – | – | – | N#Cc1cc(C2C3=C(CCS3(=O)=O)NC3=C2S(=O)(=O)CC3)ccc1F [Example 82]
10 | > 250 °C | – | – | – | O=C1CCCC2=C1C(c1ccc(Br)c(Br)c1)C1=C(CCS1(=O)=O)N2 (stereo not shown) [Example 137, 9-(3 4-dibromophenyl)-2,3,5,6,79-hexahydrothieno[3,2-b]quinolin-8(4H)-one 1 1-dioxide]
11 | 254 to 255 °C | – | – | – | O=C1CCC2=C1C(c1cc(Br)cs1)C1=C(CCS1(=O)=O)N2 (stereo not shown) [Example 67]
12 | > 250 °C | – | – | – | O=C1CCC2=C1C(c1ccc(F)c(I)c1)C1=C(CCS1(=O)=O)N2 (stereo not shown) [Example 90]
13 | 246 to 247 °C | – | – | – | O=C1CCC2=C1C(c1ccc(Br)s1)C1=C(CCS1(=O)=O)N2 (stereo not shown) [Example 68]
14 | > 260 °C | – | – | – | O=[N+]([O-])c1cccc(C2C3=C(CCCS3(=O)=O)NC3=C2S(=O)(=O)CCC3)c1 [Example 59, 3,4,6,7,8,10-hexahydro-10-(3-nitrophenyl)-2H,5H-dithiopyrano [3.2-b:2′,3′-e]pyridine, 1,1,9,9-tetraoxide]
15 | > 250 °C | – | – | – | O=C1CCC2=C1C(c1ccc(Cl)c(Cl)c1)C1=C(CCS1(=O)=O)N2 (single isomer, unassigned) [Example 145]
16 | 246 °C | – | – | – | O=C1CCC2=C1C(c1cccc(Br)c1)C1=C(CCS1(=O)=O)N2 (stereo not shown) [Example 64, 8-(3-bromophenyl)-2,3,4,5,6,8-hexahydro-7H-cyclopenta[b]thieno [2,3-e]pyridin-7-one, 1,1-dioxide]
17 | > 270 °C | – | – | – | CC1(C)CCC(=O)C2=C1NC1=C(C2c2ccc(F)c(Br)c2)S(=O)(=O)CC1 (stereo not shown) [Example 212]
18 | > 260 °C | – | – | – | O=C1CCC2=C1C(c1ccc(F)c(F)c1)C1=C(CCS1(=O)=O)N2 (stereo not shown) [Example 79]
19 | > 250 °C | – | – | – | O=C1CCCC2=C1C(c1cc(Cl)ccc1O)C1=C(CCS1(=O)=O)N2 (stereo not shown) [Example 120, 9-(5-chloro-2-hydroxyphenyl)-2,3,5,6,7,,9-hexahydrothieno[3 .2-b]guinolin-8(4H)-one, 1. I -dioxide]

Row | melting point | Landrace Pig Bladder Index [1] | Landrace Pig Bladder pD2 [1] | Emax [1] [%] | SMILES
20 | 232 °C | – | – | – | CC1=C(S(C)(=O)=O)C(c2ccc(Cl)c([N+](=O)[O-])c2)C2=C(CCC2=O)N1 (stereo not shown) [Example 76, 4-(4-chloro-3-nitrophenyl)-1,4,6,7-tetrahydro-2-methyl-3-,(methylsulfonyl)-5H-cyclopenta[b]pyridin-5-one]
21 | 248 °C | – | – | – | N#Cc1cccc(C2C3=C(CCS3(=O)=O)NC3=C2S(=O)(=O)CC3)c1 [Example 62, 8-(3-cyanophenyl)-2,3,4,5,6,8-hexahydrodithieno [3.2-b:2′,3′-e]pyridine. 1,1,7,7-tetraoxide]
22 | > 250 °C | – | – | – | O=C1CCCC2=C1C(c1ccc(Br)s1)C1=C(CCS1(=O)=O)N2 (stereo not shown) [Example 128, 9-(5-bromo-2-thienyl)-2,3,5,6,7,9-hexahydrothieno[3,2-b]quinolin-8(4H)-one, 1,1-dioxide]
23 | > 250 °C | – | – | – | O=C1CCCC2=C1C(c1ccc(Cl)c(C(F)(F)F)c1)C1=C(CCS1(=O)=O)N2 (stereo not shown) [Example 151, 9-[4-chloro-3-(trifluoromethyl)phenyl]-2,3,5,6,7,9-hexahydrothieno [32-b]quinolin-8(4H)-one, 1,1-dioxide]
24 | 253 to 256 °C | – | – | – | O=C1CCC2=C1C(c1ccc(Br)cc1)C1=C(CCS1(=O)=O)N2 (stereo not shown) [Example 78]
25 | > 250 °C | – | – | – | N#Cc1ccc(C2C3=C(CCCC3=O)NC3=C2S(=O)(=O)CC3)s1 (stereo not shown) [Example 175, 9-(5-cyano-2-thienyl)-2,3,5,6,7,9-hexahydrothieno[3,2-b]guinolin-8(4H)-one, 1,1-dioxide]
26 | > 250 °C | – | – | – | O=C1CCCC2=C1C(c1ccc(F)c(I)c1)C1=C(CCS1(=O)=O)N2 (stereo not shown) [Example 89, 9-(4-fluoro-3-iodophenyl)-2,3,5,6,7,9-hexahydrothieno [3.2-b]quinolin-8(4H)-one, 1,1-dioxide]
27 | > 250 °C | – | – | – | O=C1CCCC2=C1C(c1ccncc1)C1=C(CCS1(=O)=O)N2 (stereo not shown) [Example 118, 9-(4-pyridinyl)-2,3.5,6,7,9-hexahydrothieno[3,2-b]quinolin-8(4H)-one, 1,1-dioxide]
28 | > 250 °C | – | – | – | O=C1CCCC2=C1C(c1ccc(F)c(C(F)(F)F)c1)C1=C(CCS1(=O)=O)N2 (single isomer, unassigned; (+)) [Example 138, (+)-9-[4-fluoro-3-(trifluoromethyl)phenyl]-2,3,5,6,7,9-hexahydrothieno[3,2-b]quinolin-8(4H)-one, 1,1-dioxide]
29 | > 260 °C | – | – | – | O=C1CCC2=C1C(c1ccc(Cl)c(F)c1)C1=C(CCS1(=O)=O)N2 (stereo not shown) [Example 80]
30 | > 250 °C | – | – | – | O=C1CCC2=C1C(c1ccc(Cl)c([N+](=O)[O-])c1)C1=C(CCS1(=O)=O)N2 (single isomer, unassigned) [Example 160]
31 | 262 to 265 °C (dec.) | – | – | – | CC1(C)CCC2=C(C1=O)C(c1ccc(Cl)c(Cl)c1)C1=C(CCS1(=O)=O)N2 (stereo not shown) [Example 127, 9-(3,.4-dichlorophenyl)-7,7-dimethyl-2,3.5,.6,7,9-hexahydrothieno[3,*2-b Iquinolin-8(4H)-one, 1,1-dioxide]
32 | – | 0.02 | 5.2 | 100 | O=C1CCCC2=C1C(c1ccc(F)c(Br)c1)C1=C(CCCS1(=O)=O)N2 (single isomer, unassigned; (+)) [Example 93, (+)-I 0-(3-bromo-4-fluorophenyl)-3,4,6,7,8,10-hexahydro-2H-thiopyrano[3 2-b]quinolin-9(5H)-one, 1,1-dioxide]
33 | – | 0.078 | 6.2 | 100 | O=C1CCCC2=C1C(c1cc(Br)c(F)cc1O)C1=C(CCS1(=O)=O)N2 (stereo not shown) [Example 121, 9-(5-bromo-4-fluoro-2-hydroxyphenyl)-2.35,6,7,9-hexahydrothieno[3.2-b]quinolin-8(4H)-one, 1,1-dioxide]
34 | – | 0.0069 | 4.5 | 77 | CC1=C(S(C)(=O)=O)C(c2cc(F)c(F)c(F)c2)C2=C(CCCC2=O)N1 (stereo not shown) [Example 22, 4-(3,4,5-trifluorophenyl)-4,6,7,8-tetrahydro-2-methyl-3-(methylsulfonyl)-5(1H)-quinolinone]
35 | – | 0.32 | 6.8 | 100 | O=C1CCCC2=C1C(c1ccc(Cl)c([N+](=O)[O-])c1)C1=C(CCS1(=O)=O)N2 (stereo not shown) [Example 34, 9-(4-chloro-3-nitrophenyl)-2,3,5,6,7,9-hexahydrothieno [3,2-b]quinolin-8(4H)-one, 1,1-dioxide]
36 | – | 0.15 | 6.2 | 98 | O=C1CCC2=C1C(c1csc([N+](=O)[O-])c1)C1=C(CCS1(=O)=O)N2 (stereo not shown) [Example 69]
37 | – | 0.41 | 6.6 | 98 | O=C1CCCC2=C1C(c1ccc(F)c(Br)c1)C1=C(CCS1(=O)=O)N2 (stereo not shown) [Example 43, 9-(3-bromo-4-fluoronhenyl)-2,3,5,6,7,9-hexahydrothieno [3,2-b]quinolin-8(4H)-one, 1,1-dioxide]
